# Measured values published in patent publication US20020137929A1, “1 - (3-heterocyclylphenyl) isothiourea, -isourea, -guanidine and -amidine herbicidal agents” (Intellectual Property Department, BASF Aktiengesellschaft, priority 1998, published 2002).
# Columns and labels:
# ZEAMX (Corn, Field) [1] = experiment: Postemergence herbicidal evaluation; assay type: in vivo, Zea mays; conditions: postemergence
# Summary of the method: (§1)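 Visual 0–9 rating versus control (stand, vigor, malformation, size, chlorosis, overall appearance), taken four to five weeks post-spray. Two-week-old seedlings received roughly 0.0156–0.500 kg/ha active in acetone/water (50/50) with 0.5% TWEEN 20 via nozzle at 40 psi.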
# SETVI (Foxtail, Green) [2] = experiment: Preemergence herbicidal evaluation; assay type: in vivo, Setaria viridis; conditions: rated 4-5 weeks after treatment
# Summary of the method: (§2)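 Sown cups got a single aqueous acetone spray of test compound (roughly 0.0156–0.500 kg/ha) before seedlings emerged. Evaluation, 4–5 weeks on, used a 0–9 visual scale covering plant stand, vigor, size, malformation, chlorosis and general appearance compared with controls.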
# SETVI (Foxtail, Green) [3] = experiment: Postemergence herbicidal evaluation; assay type: in vivo, Setaria viridis; conditions: postemergence
# Summary of the method: as §1
# ECHCG (Barnyardgrass) = experiment: Preemergence herbicidal evaluation; assay type: in vivo, Echinochloa crus-galli; conditions: rated 4-5 weeks after treatment
# Summary of the method: as §2
# [4] = system: ECHORC (Watergrass (Calif.)); experiment: Postemergence weed control under flooded paddy conditions; assay type: in vivo, Echinochloa oryzoides; conditions: postemergence weeds, rated 3 to 4 weeks after treatment
# Summary of the method: (§3)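 Injury ratings (0–9 scale covering stand, vigor, malformation, size, chlorosis and overall appearance versus control) were made three to four weeks after treatment. Test material, about 0.0313 to 0.500 kg/ha a.i. in 50/50 v/v aqueous/acetone, was added to flood water 1.5 to 3 cm deep over 3 to 5 cm weeds and 1.5 to 2.5 leaf rice.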
# CYPIR (Rice Flatsedge) [5] = experiment: as above; assay type: in vivo, Cyperus iria; conditions: postemergence weeds, rated 3 to 4 weeks after treatment
# Summary of the method: as §3
# CYPIR (Rice Flatsedge) [6] = experiment: Preemergence weed control under flooded paddy conditions; assay type: in vivo, Cyperus iria; conditions: rated 3-4 weeks after treatment
# Summary of the method: (§4)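 Visual injury scored 0-9 against control three to four weeks post-treatment, greenhouse-grown. Application: acetone/water (50/50) solutions dosed directly into flood water (1.5-3 cm over silt loam, planted top 0.5 cm), roughly 0.0313 to 0.500 kg/ha active ingredient.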
# [7] = system: SAGPY (Arrowhead (Pygmaea)); experiment: Postemergence weed control under flooded paddy conditions; assay type: in vivo, Sagittaria pygmaea; conditions: postemergence weeds, rated 3 to 4 weeks after treatment
# Summary of the method: as §3
# CYPSE (Flatsedge) [8] = experiment: Preemergence weed control under flooded paddy conditions; assay type: in vivo, Cyperus serotinus; conditions: rated 3-4 weeks after treatment
# Summary of the method: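 Values are visual 0-9 scores against a control for a preemergence application into paddy flood water at about 0.0313 to 0.500 kg/ha. Greenhouse duration was three to four weeks.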
# ZEAMX (Corn, Field) [9] = experiment: Preemergence herbicidal evaluation; assay type: in vivo, Zea mays; conditions: rated 4-5 weeks after treatment
# Summary of the method: as §2
# [10] = system: ECHORC (Watergrass (Calif.)); experiment: Preemergence weed control under flooded paddy conditions; assay type: in vivo, Echinochloa oryzoides; conditions: rated 3-4 weeks after treatment
# Summary of the method: as §4
# CYPSE (Flatsedge) [11] = experiment: Postemergence weed control under flooded paddy conditions; assay type: in vivo, Cyperus serotinus; conditions: postemergence weeds, rated 3 to 4 weeks after treatment
# Summary of the method: as §3
# ORYSAT (Rice, Tebonnet) = experiment: Postemergence herbicidal evaluation; assay type: in vivo, Oryza sativa, (L.) Tebonnet; conditions: postemergence
# Summary of the method: as §1
# [12] = system: TRZAWR (Wheat, Winter, cv Riband); experiment: Preemergence herbicidal evaluation; assay type: in vivo, Triticum aestivum; conditions: rated 4-5 weeks after treatment
# Summary of the method: as §2
structure (smiles),measurement,setting,value
"COC(=O)[C@@H](Cc1ccccc1)N1C(=O)CSC1=Nc1cc(-n2c(=O)cc(C(F)(F)F)n(C)c2=O)c(F)cc1Cl [Compound 74, Methyl α-benzyl-2-{{2-chloro-5-[3,6-dihydro-3-methyl-2,6-dioxo-4-(trifluoromethyl)-1(2H)-pyrimidinyl]-4-fluorophenyl}imino}-4-oxo-3-thiazolidineacetate, D-]",ZEAMX herbicidal rating,"ZEAMX (Corn, Field) [1]; rate 0.0158 kg/ha",4.5
same,ZEAMX herbicidal rating,"ZEAMX (Corn, Field) [1]; rate 0.0315 kg/ha",5.0
same,ZEAMX herbicidal rating,"ZEAMX (Corn, Field) [1]; rate 0.0630 kg/ha",5.5
same,Preemergence herbicidal rating SETVI,"SETVI (Foxtail, Green) [2]; rate 0.0156 kg/ha",0.0
same,Preemergence herbicidal rating SETVI,"SETVI (Foxtail, Green) [2]; rate 0.0313 kg/ha",0.0
same,Preemergence herbicidal rating SETVI,"SETVI (Foxtail, Green) [2]; rate 0.0625 kg/ha",1.0
same,Preemergence herbicidal rating SETVI,"SETVI (Foxtail, Green) [2]; rate 0.1250 kg/ha",4.0
same,Preemergence herbicidal rating SETVI,"SETVI (Foxtail, Green) [2]; rate 0.2500 kg/ha",9.0
same,SETVI herbicidal rating,"SETVI (Foxtail, Green) [3]; rate 0.0158 kg/ha",1.0
same,SETVI herbicidal rating,"SETVI (Foxtail, Green) [3]; rate 0.0315 kg/ha",1.0
same,SETVI herbicidal rating,"SETVI (Foxtail, Green) [3]; rate 0.0630 kg/ha",2.0
same,Preemergence herbicidal rating ECHCG,ECHCG (Barnyardgrass); rate 0.0156 kg/ha,0.0
same,Preemergence herbicidal rating ECHCG,ECHCG (Barnyardgrass); rate 0.0313 kg/ha,0.0
same,Preemergence herbicidal rating ECHCG,ECHCG (Barnyardgrass); rate 0.0625 kg/ha,1.0
same,Preemergence herbicidal rating ECHCG,ECHCG (Barnyardgrass); rate 0.1250 kg/ha,0.0
same,Preemergence herbicidal rating ECHCG,ECHCG (Barnyardgrass); rate 0.2500 kg/ha,1.0
same,Herbicidal rating ECHORC,[4]; Rate 0.0313 kg/ha,7.0
same,Herbicidal rating ECHORC,[4]; Rate 0.0625 kg/ha,9.0
same,Herbicidal rating ECHORC,[4]; Rate 0.1250 kg/ha,9.0
same,Herbicidal rating ECHORC,[4]; Rate 0.2500 kg/ha,9.0
same,Herbicidal rating CYPIR,CYPIR (Rice Flatsedge) [5]; Rate 0.0313 kg/ha,0.0
same,Herbicidal rating CYPIR,CYPIR (Rice Flatsedge) [5]; Rate 0.0625 kg/ha,0.0
same,Herbicidal rating CYPIR,CYPIR (Rice Flatsedge) [5]; Rate 0.1250 kg/ha,0.0
same,Herbicidal rating CYPIR,CYPIR (Rice Flatsedge) [5]; Rate 0.2500 kg/ha,0.0
same,CYPIR herbicidal effect rating,CYPIR (Rice Flatsedge) [6]; 0.0313 kg/ha,0.0
same,CYPIR herbicidal effect rating,CYPIR (Rice Flatsedge) [6]; 0.0625 kg/ha,0.0
same,CYPIR herbicidal effect rating,CYPIR (Rice Flatsedge) [6]; 0.1250 kg/ha,0.0
same,CYPIR herbicidal effect rating,CYPIR (Rice Flatsedge) [6]; 0.2500 kg/ha,0.0
same,Herbicidal rating SAGPY,[7]; Rate 0.0313 kg/ha,3.0
same,Herbicidal rating SAGPY,[7]; Rate 0.0625 kg/ha,3.0
same,Herbicidal rating SAGPY,[7]; Rate 0.1250 kg/ha,3.0
same,Herbicidal rating SAGPY,[7]; Rate 0.2500 kg/ha,9.0
same,CYPSE herbicidal effect rating,CYPSE (Flatsedge) [8]; 0.0313 kg/ha,0.0
same,CYPSE herbicidal effect rating,CYPSE (Flatsedge) [8]; 0.0625 kg/ha,5.0
same,CYPSE herbicidal effect rating,CYPSE (Flatsedge) [8]; 0.1250 kg/ha,5.0
same,CYPSE herbicidal effect rating,CYPSE (Flatsedge) [8]; 0.2500 kg/ha,9.0
same,Preemergence herbicidal rating ZEAMX,"ZEAMX (Corn, Field) [9]; rate 0.0156 kg/ha",0.0
same,Preemergence herbicidal rating ZEAMX,"ZEAMX (Corn, Field) [9]; rate 0.0313 kg/ha",0.0
same,Preemergence herbicidal rating ZEAMX,"ZEAMX (Corn, Field) [9]; rate 0.0625 kg/ha",0.0
same,Preemergence herbicidal rating ZEAMX,"ZEAMX (Corn, Field) [9]; rate 0.1250 kg/ha",1.0
same,Preemergence herbicidal rating ZEAMX,"ZEAMX (Corn, Field) [9]; rate 0.2500 kg/ha",1.0
same,ECHORC herbicidal effect rating,[10]; 0.0313 kg/ha,7.0
same,ECHORC herbicidal effect rating,[10]; 0.0625 kg/ha,9.0
same,ECHORC herbicidal effect rating,[10]; 0.1250 kg/ha,9.0
same,ECHORC herbicidal effect rating,[10]; 0.2500 kg/ha,9.0
same,Herbicidal rating CYPSE,CYPSE (Flatsedge) [11]; Rate 0.0313 kg/ha,0.0
same,Herbicidal rating CYPSE,CYPSE (Flatsedge) [11]; Rate 0.0625 kg/ha,5.0
same,Herbicidal rating CYPSE,CYPSE (Flatsedge) [11]; Rate 0.1250 kg/ha,5.0
same,Herbicidal rating CYPSE,CYPSE (Flatsedge) [11]; Rate 0.2500 kg/ha,9.0
same,ORYSAT herbicidal rating,"ORYSAT (Rice, Tebonnet); rate 0.0158 kg/ha",3.5
same,ORYSAT herbicidal rating,"ORYSAT (Rice, Tebonnet); rate 0.0315 kg/ha",4.5
same,ORYSAT herbicidal rating,"ORYSAT (Rice, Tebonnet); rate 0.0630 kg/ha",5.5
same,Preemergence herbicidal rating TRZAWR,[12]; rate 0.0156 kg/ha,0.0
same,Preemergence herbicidal rating TRZAWR,[12]; rate 0.0313 kg/ha,0.0
same,Preemergence herbicidal rating TRZAWR,[12]; rate 0.0625 kg/ha,1.0
same,Preemergence herbicidal rating TRZAWR,[12]; rate 0.1250 kg/ha,1.0
same,Preemergence herbicidal rating TRZAWR,[12]; rate 0.2500 kg/ha,1.0
